{"source": "patent US7432264B2", "about": "“Antimicrobial biaryl compounds” (Isis Pharmaceuticals, Inc., priority 2000, dated 2008)", "key": {"E. coli ATCC 25922": {"tested_on": "E. coli ATCC 25922", "test": "Minimum inhibitory concentration (MIC), E. coli", "format": "cell-based, Escherichia coli", "details": "Escherichia coli", "description": "(§1) Bacterial Strains. The Streptococcus pyogenes strains, Klebsiella pneumoniae, Escherichia coli, Staphylococcus aureus, Enterococcus faecalis used in the antibacterial activity studies ATCC 14289, 49399, 13883, 25922, 13709, 29212, respectively, are obtained from the American Type Culture Collection, Rockville, Md. The strain E. coli imp— is a mutant strain of wild type E. coli with increased outer membrane permeability and was grown in LB broth at 37 °C. S. pyogenes strain is grown in Todd-Hewitt broth. S. aureus is grown in trypticase soy broth, E. faecalis in Todd-Hewitt broth, wild type E. coli and K. pneumoniae, in nutrient broth.\n(§2) Determination of Minimum Inhibitory Concentrations (MICs). The assays were carried out in […] volume in duplicate in 96-well clear flat-bottom plates. The bacterial suspension from an overnight culture growth in appropriate medium was added to a solution of test compound in 4% DMSO in water. Final bacterial inoculum was approximately 10^5-10^6 CFU/well. The percent growth of the bacteria in test wells relative to that observed for a well containing no compound was determined by measuring absorbance at 595 nm (A595) after 24 h. […] Both ampicillin and tetracycline is used as antibiotic-positive controls in each screening assay for S. pyogenes, E. coli imp-, E. coli, S. aureus, E. faecalis, K pneumoniae and P. vulgaris. Ciprofloxacin is used as an antibiotic positive control in each screening assay for P. aeruginosa."}, "S. aureus ATCC 13709": {"tested_on": "S. aureus ATCC 13709", "test": "Minimum inhibitory concentration (MIC), S. aureus", "format": "cell-based, Staphylococcus aureus", "details": "Staphylococcus aureus", "description": "as §1, §2"}, "[1]": {"details": "ATCC25922, 24 h, read-out: MIC (E. coli)"}, "[2]": {"details": "ATCC13709, 24 h, read-out: MIC (S. aureus)"}, "[3]": {"details": "ATCC25922, read-out: MIC (E. coli) +serum"}, "[4]": {"details": "ATCC25922, read-out: MIC (E. coli) alone"}, "[5]": {"details": "ATCC13709, read-out: MIC (S. aureus) +serum, with serum"}, "[6]": {"details": "ATCC13709, read-out: MIC (S. aureus) alone, alone (no serum)"}}, "note": "Like-named read-outs stand apart in the source and are kept apart here."}
{"smiles": "Cc1ccc(F)cc1-c1ccc(C(=O)Nc2cccc(-c3ccc(C(=O)NC(C(=O)N4CCNCC4)c4ccc(OCCCN(C)C)cc4)o3)c2)cc1", "note": "(centres unmarked) [Compound 52]", "values": [{"measurement": "MIC", "setting": "E. coli ATCC 25922; [1]", "value": "13 to 25", "unit": "mM"}, {"measurement": "MIC", "setting": "S. aureus ATCC 13709; [2]", "value": "6 to 13", "unit": "mM"}]}
{"smiles": "CN(C)CCCOc1ccc(C(NC(=O)c2ccc(-c3cccc(NC(=O)c4ccc(-c5ccccc5F)cc4)c3)o2)C(=O)N2CCNCC2)cc1", "note": "(centres unmarked) [Compound 53]", "values": [{"measurement": "MIC", "setting": "E. coli ATCC 25922; [1]", "value": "13 to 25", "unit": "mM"}, {"measurement": "MIC", "setting": "S. aureus ATCC 13709; [2]", "value": "6 to 13", "unit": "mM"}]}
{"smiles": "CN(C)CCCOc1ccc(C(NC(=O)c2ccc(-c3cccc(NC(=O)c4ccc(-c5c(F)cccc5F)cc4)c3)o2)C(=O)N2CCNCC2)cc1", "note": "(centres unmarked) [Compound 54]", "values": [{"measurement": "MIC", "setting": "E. coli ATCC 25922; [1]", "value": "3 to 6", "unit": "mM"}, {"measurement": "MIC", "setting": "S. aureus ATCC 13709; [2]", "value": "13 to 25", "unit": "mM"}]}
{"smiles": "CN(C)CCCOc1ccc(C(NC(=O)c2ccc(-c3cccc(NC(=O)c4ccc(-c5ccc(F)cc5F)cc4)c3)o2)C(=O)N2CCNCC2)cc1", "note": "(centres unmarked) [Compound 55]", "values": [{"measurement": "MIC", "setting": "E. coli ATCC 25922; [1]", "value": "25 to 50", "unit": "mM"}, {"measurement": "MIC", "setting": "S. aureus ATCC 13709; [2]", "value": "6 to 13", "unit": "mM"}]}
{"smiles": "CN(C)CCCOc1ccc(C(NC(=O)c2ccc(-c3cccc(NC(=O)c4ccc(-c5ccccc5)cc4F)c3)o2)C(=O)N2CCNCC2)cc1", "note": "(centres unmarked) [Compound 59]", "values": [{"measurement": "MIC", "setting": "E. coli ATCC 25922; [1]", "value": "3 to 6", "unit": "mM"}, {"measurement": "MIC", "setting": "S. aureus ATCC 13709; [2]", "value": "6 to 13", "unit": "mM"}]}
{"smiles": "CN(C)CCCOc1ccc(C(NC(=O)c2ccc(-c3cccc(NC(=O)c4ccc(-c5ccccc5)cc4Cl)c3)o2)C(=O)N2CCNCC2)cc1", "note": "(centres unmarked) [Compound 60]", "values": [{"measurement": "MIC", "setting": "E. coli ATCC 25922; [1]", "value": "6 to 13", "unit": "mM"}, {"measurement": "MIC", "setting": "S. aureus ATCC 13709; [2]", "value": "25 to 50", "unit": "mM"}]}
{"smiles": "Cc1cc(C(=O)Nc2cccc(-c3ccc(C(=O)NC(C(=O)N4CCNCC4)c4ccc(OCCCN(C)C)cc4)o3)c2)ccc1-c1ccccc1", "note": "(centres unmarked) [Compound 62]", "values": [{"measurement": "MIC", "setting": "E. coli ATCC 25922; [1]", "value": "3 to 6", "unit": "mM"}, {"measurement": "MIC", "setting": "S. aureus ATCC 13709; [2]", "value": "12 to 25", "unit": "mM"}]}
{"smiles": "CN(C)CCCOc1ccc(C(C(=O)N2CCNCC2)N(C)Cc2ccc(-c3cccc(NC(=O)c4ccc(-c5ccccc5)cc4)c3)o2)cc1", "note": "(centres unmarked) [Compound 64]", "values": [{"measurement": "MIC", "setting": "E. coli ATCC 25922; [1]", "value": "6 to 13", "unit": "mM"}, {"measurement": "MIC", "setting": "S. aureus ATCC 13709; [2]", "value": "3 to 6", "unit": "mM"}]}
{"smiles": "CN(C)CCCOc1ccc(C(NC(=O)c2ccc(-c3cccc(NCc4ccc(-c5ccccc5)cc4)c3)o2)C(=O)N2CCNCC2)cc1", "note": "(centres unmarked) [Compound 65]", "values": [{"measurement": "MIC", "setting": "E. coli ATCC 25922; [1]", "value": "13 to 25", "unit": "mM"}, {"measurement": "MIC", "setting": "S. aureus ATCC 13709; [2]", "value": "3 to 6", "unit": "mM"}]}
{"smiles": "CN(C)CCCOc1ccc(C(NC(=O)c2ccc(-c3cccc(N(C)Cc4ccc(-c5ccccc5)cc4)c3)o2)C(=O)N2CCNCC2)cc1", "note": "(centres unmarked) [Compound 66]", "values": [{"measurement": "MIC", "setting": "E. coli ATCC 25922; [1]", "value": "13 to 25", "unit": "mM"}, {"measurement": "MIC", "setting": "S. aureus ATCC 13709; [2]", "value": "3 to 6", "unit": "mM"}]}
{"smiles": "CN(C)CCCCC(NC(=O)c1ccc(-c2cccc(NC(=O)c3ccc(-c4ccccc4)cc3)c2)o1)C(=O)N1CCNCC1", "note": "(centres unmarked) [Compound 68]", "values": [{"measurement": "MIC", "setting": "E. coli ATCC 25922; [1]", "value": "50 to 100", "unit": "mM"}, {"measurement": "MIC", "setting": "S. aureus ATCC 13709; [2]", "value": "25 to 50", "unit": "mM"}]}
{"smiles": "CN(C)CCCOc1ccc(C(NC(=O)c2ccc(-c3cccc(NC(=O)c4ccc(-c5ccccc5)cc4)c3)s2)C(=O)N2CCNCC2)cc1", "note": "(centres unmarked) [Compound 69]", "values": [{"measurement": "MIC", "setting": "E. coli ATCC 25922; [1]", "value": "25 to 50", "unit": "mM"}, {"measurement": "MIC", "setting": "S. aureus ATCC 13709; [2]", "value": "25 to 50", "unit": "mM"}]}
{"smiles": "CN(C)CCCOc1ccc(C(NC(=O)c2ccc(-c3cccc(NC(=O)c4ccc(-c5ccccc5)cc4)c3)o2)C(=O)N2CCN(C)CC2)cc1", "note": "(centres unmarked) [Compound 70]", "values": [{"measurement": "MIC", "setting": "E. coli ATCC 25922; [1]", "value": "25 to 50", "unit": "mM"}, {"measurement": "MIC", "setting": "S. aureus ATCC 13709; [2]", "value": "25 to 50", "unit": "mM"}]}
{"smiles": "CN(C)CCCOc1ccc(C(NC(=O)c2ccc(-c3cccc(NC(=O)c4ccc(-c5ccccc5)cc4)c3)o2)C(=O)N2CCN(S(C)(=O)=O)CC2)cc1", "note": "(centres unmarked) [Compound 71]", "values": [{"measurement": "MIC", "setting": "E. coli ATCC 25922; [1]", "value": "> 100", "unit": "mM"}, {"measurement": "MIC", "setting": "S. aureus ATCC 13709; [2]", "value": "> 100", "unit": "mM"}]}
{"smiles": "COC(=O)N1CCN(C(=O)C(NC(=O)c2ccc(-c3cccc(NC(=O)c4ccc(-c5ccccc5)cc4)c3)o2)c2ccc(OCCCN(C)C)cc2)CC1", "note": "(centres unmarked) [Compound 72]", "values": [{"measurement": "MIC", "setting": "E. coli ATCC 25922; [1]", "value": "> 100", "unit": "mM"}, {"measurement": "MIC", "setting": "S. aureus ATCC 13709; [2]", "value": "> 100", "unit": "mM"}]}
{"smiles": "CN(C)CCCOc1ccc(C(NC(=O)c2ccc(-c3cccc(NC(=O)c4ccc(-c5ccccc5)cc4)c3)o2)C(=O)N2CCNCC2)cc1", "note": "(centres unmarked) [drawing 88]", "values": [{"measurement": "MIC", "setting": "E. coli ATCC 25922; [3]", "value": "50 to 100", "unit": "mM"}, {"measurement": "MIC", "setting": "E. coli ATCC 25922; [4]", "value": "6 to 13", "unit": "mM"}, {"measurement": "MIC", "setting": "S. aureus ATCC 13709; [5]", "value": "50 to 100", "unit": "mM"}, {"measurement": "MIC", "setting": "S. aureus ATCC 13709; [6]", "value": "3 to 6", "unit": "mM"}]}
{"smiles": "CN(C)CCCOc1ccc(C(NC(=O)c2ccc(-c3cccc(N(C)Cc4ccc(-c5ccccc5)cc4)c3)o2)C(=O)N2CCNCC2)cc1", "note": "(centres unmarked) [drawing 89]", "values": [{"measurement": "MIC", "setting": "E. coli ATCC 25922; [3]", "value": "> 100", "unit": "mM"}, {"measurement": "MIC", "setting": "E. coli ATCC 25922; [4]", "value": "6 to 13", "unit": "mM"}, {"measurement": "MIC", "setting": "S. aureus ATCC 13709; [5]", "value": "50 to 100", "unit": "mM"}, {"measurement": "MIC", "setting": "S. aureus ATCC 13709; [6]", "value": "3 to 6", "unit": "mM"}]}
